# Data from patent US8883782B2, “Spiro-tetracyclic ring compounds as beta-secretase modulators and methods of use” (Amgen Inc., priority 2010, dated 2014).
# pIC50: −log10 of the molar value. Where two headings read alike, the source gives them in different places.
# Legend:
# [1] = target: Beta Secretase enzyme (BACE) (Homo sapiens, UniProt P56817); experiment: In vitro enzymatic BACE FRET (fluorescence resonance energy transfer) assay; format: biochemical; conditions: for pIC50: average IC50, enzyme assay, read-out: BACE 1 FRET assay
# Outline: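 Enzyme activity was measured at pH 4.2 (0.05 M acetate, 10% DMSO final, 100 uM genapol) by cleavage of a 50 nM quenched fluorogenic peptide. After one hour, Tris was added to neutralise the pH and fluorescence was recorded.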
# [2] = tested on: Aβ40 in conditioned medium of cells stably expressing Amyloid Precursor Protein (APP); experiment: In vitro BACE cell-based assay (Aβ40 in conditioned medium, sandwich ELISA); conditions: for pIC50: read-out: HEK cell assay
# Outline: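 Secreted Aβ40 is captured with pAb40 and detected with biotinylated 6E10, read by europium time-resolved fluorescence. IC50 comes from percent inhibition versus concentration.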
# [3] = Homo sapiens, HEK293, average IC50
# [4] = Homo sapiens, HEK293, average IC50, HEK cells
# Chain of Beta Secretase enzyme (BACE) (P56817 46-501, species assumed): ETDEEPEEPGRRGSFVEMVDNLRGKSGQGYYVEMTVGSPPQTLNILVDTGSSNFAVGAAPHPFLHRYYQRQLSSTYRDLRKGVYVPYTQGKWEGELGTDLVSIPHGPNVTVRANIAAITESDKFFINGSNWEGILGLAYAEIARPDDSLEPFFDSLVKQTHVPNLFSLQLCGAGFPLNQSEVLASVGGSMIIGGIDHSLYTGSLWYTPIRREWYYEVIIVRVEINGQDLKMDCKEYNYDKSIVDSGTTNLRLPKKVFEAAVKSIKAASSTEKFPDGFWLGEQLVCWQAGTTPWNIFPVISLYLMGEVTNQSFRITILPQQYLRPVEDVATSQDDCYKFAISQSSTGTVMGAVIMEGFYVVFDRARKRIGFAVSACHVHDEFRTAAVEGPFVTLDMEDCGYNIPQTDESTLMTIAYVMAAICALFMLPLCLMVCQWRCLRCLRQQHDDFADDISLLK
SMILES,pIC50 [1],"pIC50 [2, 3]","pIC50 [2, 4]",other results
"NC1=N[C@@]2(CC1(F)F)c1cc(-c3cccnc3)ccc1Oc1ncc(-c3cccnc3)cc12 [Example 112, (5S)-4′,4′-difluoro-3,7-di-3-pyridinyl-3′,4′-dihydrospiro[chromeno[2,3-b]pyridine-5,2′-pyrrol]-5′-amine]",7.20,5.67,–,–
"COC(C)(C)CNc1cc2c(cn1)Oc1ccc(-c3cccnc3)cc1[C@@]21COC(N)=N1 [Example 409, (5S)-N~3~-(2-methoxy-2-methylpropyl)-7-(3-pyridinyl)spiro[chromeno[2,3-c]pyridine-5,4′-[1,3]oxazole]-2′,3-diamine]",8.18,–,7.75,–
"Cc1cc(-c2ccc3c(c2)[C@@]2(COC(N)=N2)c2cc(-c4cccnc4)ncc2O3)cnc1F [Example 230, (5S)-7-(6-fluoro-5-methyl-3-pyridinyl)-3-(3-pyridinyl)spiro[chromeno[2,3-c]pyridine-5,4′-[1,3]oxazol]-2′-amine]",8.09,7.44,–,–
"COc1nc(-c2ccncc2)cc2c1Oc1ccc(-c3cccnc3)cc1[C@@]21COC(N)=N1 [Example 838, (5S)-1-methoxy-7-(3-pyridinyl)-3-(4-pyridinyl)spiro[chromeno[2,3-c]pyridine-5,4′-[1,3]oxazol]-2′-amine]",8.14,7.70,–,–
"CC(C)(C)C#Cc1cnc2c(c1)[C@@]1(COC(N)=N1)c1cc(-c3cncnc3)c(F)cc1O2 [Example 338, (5R)-3-(3,3-dimethyl-1-butyn-1-yl)-8-fluoro-7-(5-pyrimidinyl)spiro[chromeno[2,3-b]pyridine-5,4′-[1,3]oxazol]-2′-amine]",6.67,5.91,–,–
"NC1=N[C@@]2(CO1)c1cc(-c3cccnc3F)ccc1Oc1c2cc(-c2ccccc2)nc1F [Example 806, (S)-1-fluoro-7-(2-fluoropyridin-3-yl)-3-phenyl-5′H-spiro[chromeno[2,3-c]pyridine-5,4′-oxazol]-2′-amine]",8.82,–,–,"pIC50 ([2]; Homo sapiens, HEK293, average IC50, HEK cell assay): 8.30"
"COc1nc(C2=CCOCC2)cc2c1Oc1ccc(-c3cccnc3F)cc1[C@@]21COC(N)=N1 [Example 832, (5S)-3-(3,6-dihydro-2H-pyran-4-yl)-7-(2-fluoro-3-pyridinyl)-1-methoxyspiro[chromeno[2,3-c]pyridine-5,4′-[1,3]oxazol]-2′-amine]",–,–,–,"IC50 ([1]; BACE 1 FRET assay (uM)): 0.0007 µM; IC50 ([2]; Homo sapiens, HEK293, read-out: HEK cell assay (uM), average IC50, HEK cell assay): 0.032 µM"
"COc1cc(F)c2c(c1)[C@]1(COC(N)=N1)c1cc(-c3cncc(C#CC4(C)COC4)c3)ccc1O2 [Example 821, (4S)-4′-fluoro-2′-methoxy-7′-(5-((3-methyl-3-oxetanyl)ethynyl)-3-pyridinyl)spiro[1,3-oxazole-4,9′-xanthen]-2-amine]",7.29,5.54,–,–
"NC1=N[C@@]2(CS1)c1cc(-c3ccc(F)nc3)ccc1Oc1ncc(Br)cc12 [Example 963, (5S)-3-bromo-7-(6-fluoro-3-pyridinyl)spiro[chromeno[2,3-b]pyridine-5,4′-[1,3]thiazol]-2′-amine]",7.36,–,6.08,–
"NC1=N[C@@]2(CO1)c1cc(-c3cnccn3)ccc1Oc1c(F)cc(N3CCOCC3)cc12 [Example 269, (4S)-4′-fluoro-2′-(4-morpholinyl)-7′-(2-pyrazinyl)spiro[1,3-oxazole-4,9′-xanthen]-2-amine]",8.28,7.73,–,–
"CC(C)(C#N)COc1cc(F)c2c(c1)[C@@]1(COC(N)=N1)c1cc(-c3cccnc3F)c(F)cc1O2 [Example 863, 3-(((4R)-2-amino-4′,6′-difluoro-7′-(2-fluoro-3-pyridinyl)spiro[1,3-oxazole-4,9′-xanthen]-2′-yl)oxy)-2,2-dimethylpropanenitrile]",7.10,–,5.63,–
"NC1=N[C@@]2(CS1)c1cc(-c3cccnc3F)ccc1Oc1cnc(C3=CCOCC3)cc12 [Example 614, (5S)-3-(3,6-dihydro-2H-pyran-4-yl)-7-(2-fluoro-3-pyridinyl)spiro[chromeno[2,3-c]pyridine-5,4′-[1,3]thiazol]-2′-amine]",9.52,–,–,"pIC50 ([2]; average IC50, HEK cells): 8.30"
"C[C@@](C#Cc1cnc2c(c1)[C@]1(COC(N)=N1)c1cc(-c3cccnc3F)ccc1O2)(CO)CCl (single isomer, unassigned) [Example 1014]",8.66,–,–,pIC50 [2]: 7.68

# Continued, in another order:
pIC50 [1],"pIC50 [2, 3]","pIC50 [2, 4]",SMILES,other results
9.30,7.74,–,"NC1=N[C@@]2(CO1)c1cc(-c3cnccc3F)ccc1Oc1c(F)cc(C3=CCOCC3)cc12 [Example 1044, (4S)-2′-(3,6-dihydro-2H-pyran-4-yl)-4′-fluoro-7′-(4-fluoro-3-pyridinyl)spiro[1,3-oxazole-4,9′-xanthen]-2-amine]",–
8.34,–,7.13,"CN(C)c1ccc(-c2cc3c(cn2)Oc2ccc(-c4cccnc4F)cc2[C@@]32COC(N)=N2)cc1 [Example 567, (5S)-3-(4-(dimethylamino)phenyl)-7-(2-fluoro-3-pyridinyl)spiro[chromeno[2,3-c]pyridine-5,4′-[1,3]oxazol]-2′-amine]",–
8.85,7.82,–,"CC1(C)C=C(c2cnc3c(c2)[C@]2(CSC(N)=N2)c2cc(-c4ccc(F)c(C#N)c4)ccc2O3)CCO1 [Example 784, 5-((5S)-2′-amino-3-(6,6-dimethyl-3,6-dihydro-2H-pyran-4-yl)spiro[chromeno[2,3-b]pyridine-5,4′-[1,3]thiazol]-7-yl)-2-fluorobenzonitrile]",–
9.10,–,8.14,"NC1=N[C@@]2(CO1)c1cc(-c3cncnc3)ccc1Oc1cnc(N3CCC(F)(F)C3)cc12 [Example 540, (5S)-3-(3,3-difluoro-1-pyrrolidinyl)-7-(5-pyrimidinyl)spiro[chromeno[2,3-c]pyridine-5,4′-[1,3]oxazol]-2′-amine]",–
9.40,8.22,–,"N#Cc1cccc(-c2ccc3c(c2)[C@@]2(COC(N)=N2)c2cc(C4=CCOCC4)nc(F)c2O3)c1 [Example 743, 3-((5S)-2′-amino-3-(3,6-dihydro-2H-pyran-4-yl)-1-fluorospiro[chromeno[2,3-c]pyridine-5,4′-[1,3]oxazol]-7-yl)benzonitrile]",–
8.70,8.27,–,"COC1CN(c2cc(F)c3c(c2)[C@]2(COC(N)=N2)c2cc(-c4cccnc4F)ccc2O3)C1 [Example 281, (4S)-4′-fluoro-7′-(2-fluoro-3-pyridinyl)-2′-(3-methoxy-1-azetidinyl)spiro[1,3-oxazole-4,9′-xanthen]-2-amine]",–
8.82,7.82,–,"NC1=N[C@@]2(CS1)c1cc(-c3cccnc3F)ccc1Oc1c(F)cc(N3CC[C@@H](F)C3)cc12 [Example 1075, (4S)-4′-fluoro-7′-(2-fluoro-3-pyridinyl)-2′-((3R)-3-fluoro-1-pyrrolidinyl)spiro[1,3-thiazole-4,9′-xanthen]-2-amine]",–
8.49,6.95,–,"CC1(COc2cc3c(cc2F)Oc2ccc(-c4cccc(Cl)c4)cc2[C@@]32COC(N)=N2)COC1 [Example 310, (4S)-7′-(3-chlorophenyl)-3′-fluoro-2′-((3-methyl-3-oxetanyl)methoxy)spiro[1,3-oxazole-4,9′-xanthen]-2-amine]",–
8.68,7.77,–,"N#Cc1cccc(-c2ccc3c(c2)[C@@]2(CSC(N)=N2)c2cc(C4=CCOCC4)cnc2O3)c1F [Example 763, 3-((5S)-2′-amino-3-(3,6-dihydro-2H-pyran-4-yl)spiro[chromeno[2,3-b]pyridine-5,4′-[1,3]thiazol]-7-yl)-2-fluorobenzonitrile]",–
8.42,–,7.47,"NC1=N[C@@]2(CO1)c1cc(-c3cccnc3)ccc1Oc1c(F)cc(-n3cccn3)cc12 [Example 684, (4S)-4′-fluoro-2′-(1H-pyrazol-1-yl)-7′-(3-pyridyl)spiro[1,3-oxazole-4,9′-xanthen]-2-amine]",–
8.77,7.49,–,"CC(C)(C#N)COc1cc2c(c(F)c1F)Oc1ccc(-c3cccnc3)cc1[C@@]21COC(N)=N1 [Example 1009, 3-(((4S)-2-amino-3′,4′-difluoro-7′-(3-pyridinyl)spiro[1,3-oxazole-4,9′-xanthen]-2′-yl)oxy)-2,2-dimethylpropanenitrile]",–
8.85,8.19,–,"CC1(C#Cc2cc3c(cn2)Oc2ccc(-c4cccnc4)cc2[C@@]32COC(N)=N2)COC1 [Example 154, (5S)-3-((3-methyl-3-oxetanyl)ethynyl)-7-(3-pyridinyl)spiro[chromeno[2,3-c]pyridine-5,4′-[1,3]oxazol]-2′-amine]",–
9.52,–,7.96,"NC1=N[C@@]2(CS1)c1cc(-c3cccnc3F)c(F)cc1Oc1c(F)cc(N3CCOCC3)cc12 [Example 879, (4S)-3′,5′-difluoro-2′-(2-fluoro-3-pyridinyl)-7′-(4-morpholinyl)spiro[1,3-thiazole-4,9′-xanthen]-2-amine]",–
8.85,8.15,–,"Cc1ccc(-c2cc3c(cn2)Oc2ccc(-c4cncc(Cl)c4)cc2[C@@]32COC(N)=N2)cn1 [Example 227, (5S)-7-(5-chloro-3-pyridinyl)-3-(6-methyl-3-pyridinyl)spiro[chromeno[2,3-c]pyridine-5,4′-[1,3]oxazol]-2′-amine]",–
8.62,–,7.75,"CC1(C)C[C@H](c2cc(F)c3c(c2)[C@]2(COC(N)=N2)c2cc(-c4cnccn4)ccc2O3)CCO1 [Example 450, (4S)-2′-((4R)-2,2-dimethyltetrahydro-2H-pyran-4-yl)-4′-fluoro-7′-(2-pyrazinyl)spiro[1,3-oxazole-4,9′-xanthen]-2-amine]",–
8.82,–,7.74,"N#Cc1cccc(-c2ccc3c(c2)[C@@]2(COC(N)=N2)c2cc(N4CCC(F)(F)CC4)ncc2O3)c1 [Example 424, 3-((5S)-2′-amino-3-(4,4-difluoro-1-piperidinyl)spiro[chromeno[2,3-c]pyridine-5,4′-[1,3]oxazol]-7-yl)benzonitrile]",–
